Source: article PMC10065276, “Enhanced therapeutic window for antimicrobial Pept-ins by investigating their structure-activity relationship” (PLOS ONE, 2023)
Converted amounts (≈) assume the structure as drawn. Residues, ends and D or L forms follow the SMILES beside them.

System: E. coli BL21
Conditions: BL21, 17 h
Experimental: The peptide MIC was determined via the broth microdilution assay according to the EUCAST guideline, using 96-well polystyrene flat-bottom microtiter plates (BD Biosciences). Briefly, a single colony was inoculated in 5 mL Mueller-Hinton (MH) medium and incubated, while shaking at 37°C, to the end-exponential growth phase. The bacterial culture was subsequently diluted to 0.005 McFarland (McF) (~1.5x10^6 CFU/mL) with fresh MH medium. Two-fold serial peptide-dilutions were prepared in 50 μL MH medium resulting in a concentration range of 0.75 to 100 μg/mL (at least three wells for each concentration). Afterwards, 50 μL of the freshly diluted bacterial suspension (0.005 McF) was mixed with different peptide concentrations in the 96-well plate, performed in triplicates. The plate was ultimately incubated at 37°C overnight without shaking for 17 hours. The MIC was determined as the lowest peptide concentration without visible bacterial growth.

Structure (SMILES)	BL21 MIC [µg/mL]	BL21 MIC, SS bond [µg/mL]	BL21 MIC, no SS bond [µg/mL]	MIC against E. coli BL21 [µg/mL]
CC[C@H](C)[C@H](NC(=O)CNC(=O)[C@H](CC(C)C)NC(=O)[C@@H](N)CCCNC(=N)N)C(=O)N[C@@H](C)C(=O)N[C@H](C(=O)N[C@@H](C)C(=O)N[C@@H](CC(C)C)C(=O)N[C@@H](C)C(=O)N[C@@H](CCCNC(=N)N)C(=O)N1CCC[C@H]1C(=O)N[C@@H](CCCNC(=N)N)C(=O)N[C@@H](CC(C)C)C(=O)NCC(=O)N[C@H](C(=O)N[C@@H](C)C(=O)N[C@H](C(=O)N[C@@H](C)C(=O)N[C@@H](CC(C)C)C(=O)N[C@@H](CCCNC(=N)N)C(=O)N[C@@H](CCCNC(=N)N)C(=O)O)C(C)C)[C@@H](C)CC)C(C)C [Peptide P33-R9A] (H-RLGIAVALARPRLGIAVALRR-OH)	6.25	–	–	–
CC(C)C[C@H](NC(=O)CNC(=O)[C@@H](N)CCCNC(=N)N)C(=O)NCC(=O)N[C@@H](CC(C)C)C(=O)N[C@@H](C)C(=O)N[C@@H](CC(C)C)C(=O)N[C@H](C(=O)N[C@@H](CCCNC(=N)N)C(=O)N[C@@H](CCCNC(=N)N)C(=O)N1CCC[C@H]1C(=O)N[C@@H](CCCNC(=N)N)C(=O)N[C@@H](C)C(=O)N[C@@H](CC(C)C)C(=O)NCC(=O)N[C@@H](CC(C)C)C(=O)N[C@@H](C)C(=O)N[C@@H](CC(C)C)C(=O)N[C@H](C(=O)N[C@@H](CCCNC(=N)N)C(=O)N[C@@H](CCCNC(=N)N)C(=O)O)C(C)C)C(C)C [Peptide P2_G13A] (H-RGLGLALVRRPRALGLALVRR-OH)	12.50	–	–	–
CC(C)C[C@H](NC(=O)CNC(=O)[C@H](CCCNC(=N)N)NC(=O)[C@@H]1CCCN1C(=O)[C@H](CCCNC(=N)N)NC(=O)[C@H](CCCNC(=N)N)NC(=O)[C@@H](NC(=O)[C@H](C)NC(=O)[C@H](C)NC(=O)[C@H](CC(C)C)NC(=O)CNC(=O)[C@H](CC(C)C)NC(=O)CNC(=O)[C@@H](N)CCCNC(=N)N)C(C)C)C(=O)NCC(=O)N[C@@H](CC(C)C)C(=O)N[C@@H](C)C(=O)N[C@@H](CC(C)C)C(=O)N[C@H](C(=O)N[C@@H](CCCNC(=N)N)C(=O)N[C@@H](CCCNC(=N)N)C(=O)O)C(C)C [Peptide P2_L7A] (H-RGLGLAAVRRPRGLGLALVRR-OH)	50.00	–	–	–
CC(C)C[C@H](NC(=O)CNC(=O)[C@H](CCCNC(=N)N)NC(=O)[C@@H]1CCCN1C(=O)[C@H](CCCNC(=N)N)NC(=O)[C@H](CCCNC(=N)N)NC(=O)[C@@H](NC(=O)[C@H](CC(C)C)NC(=O)[C@H](C)NC(=O)[C@H](CC(C)C)NC(=O)[C@H](C)NC(=O)[C@H](CC(C)C)NC(=O)CNC(=O)[C@@H](N)CCCNC(=N)N)C(C)C)C(=O)NCC(=O)N[C@@H](CC(C)C)C(=O)N[C@@H](C)C(=O)N[C@@H](CC(C)C)C(=O)N[C@H](C(=O)N[C@@H](CCCNC(=N)N)C(=O)N[C@@H](CCCNC(=N)N)C(=O)O)C(C)C [Peptide P2_G4A] (H-RGLALALVRRPRGLGLALVRR-OH)	6.25	–	–	–
CC(C)C[C@H](NC(=O)CNC(=O)[C@H](CCCNC(=N)N)NC(=O)[C@@H]1CCCN1C(=O)[C@H](CCCNC(=N)N)NC(=O)[C@H](CCCNC(=N)N)NC(=O)[C@@H](NC(=O)[C@H](CC(C)C)NC(=O)[C@H](Cc1ccc(O)cc1)NC(=O)[C@H](CC(C)C)NC(=O)CNC(=O)[C@H](CC(C)C)NC(=O)CNC(=O)[C@@H](N)CCCNC(=N)N)C(C)C)C(=O)NCC(=O)N[C@@H](CC(C)C)C(=O)N[C@@H](Cc1ccc(O)cc1)C(=O)N[C@@H](CC(C)C)C(=O)N[C@H](C(=O)N[C@@H](CCCNC(=N)N)C(=O)N[C@@H](CCCNC(=N)N)C(=O)O)C(C)C [A5Y (P2)] (H-RGLGLYLVRRPRGLGLYLVRR-OH)	6.25	–	–	–
CC(C)C[C@H](NC(=O)CNC(=O)[C@H](CCCNC(=N)N)NC(=O)[C@@H]1CCCN1C(=O)[C@H](CCCNC(=N)N)NC(=O)[C@H](CCCNC(=N)N)NC(=O)[C@@H](NC(=O)[C@H](CC(C)C)NC(=O)[C@H](C)NC(=O)[C@H](CC(C)C)NC(=O)CNC(=O)[C@H](CC(C)C)NC(=O)[C@H](C)NC(=O)[C@@H](N)CCCNC(=N)N)C(C)C)C(=O)NCC(=O)N[C@@H](CC(C)C)C(=O)N[C@@H](C)C(=O)N[C@@H](CC(C)C)C(=O)N[C@H](C(=O)N[C@@H](CCCNC(=N)N)C(=O)N[C@@H](CCCNC(=N)N)C(=O)O)C(C)C [Peptide P2_G2A] (H-RALGLALVRRPRGLGLALVRR-OH)	6.25	–	–	–
CC[C@H](C)[C@H](NC(=O)CNC(=O)[C@H](CC(C)C)NC(=O)[C@H](CCCNC(=N)N)NC(=O)[C@@H]1CCCN1C(=O)[C@H](CCCNC(=N)N)NC(=O)[C@H](CCCNC(=N)N)NC(=O)[C@H](CC(C)C)NC(=O)[C@H](C)NC(=O)[C@@H](NC(=O)[C@H](C)NC(=O)[C@@H](NC(=O)CNC(=O)[C@H](CC(C)C)NC(=O)[C@H](C)N)[C@@H](C)CC)C(C)C)C(=O)N[C@@H](C)C(=O)N[C@H](C(=O)N[C@@H](C)C(=O)N[C@@H](CC(C)C)C(=O)N[C@@H](CCCNC(=N)N)C(=O)N[C@@H](CCCNC(=N)N)C(=O)O)C(C)C [Peptide P33-R1A] (H-ALGIAVALRRPRLGIAVALRR-OH)	6.25	–	–	–
CC(C)C[C@H](NC(=O)CNC(=O)[C@H](CCCNC(=N)N)NC(=O)[C@@H]1CSSC[C@H](NC(=O)[C@@H](NC(=O)[C@H](CC(C)C)NC(=O)[C@H](C)NC(=O)[C@H](CC(C)C)NC(=O)CNC(=O)[C@H](CC(C)C)NC(=O)CNC(=O)[C@@H](N)CCCNC(=N)N)C(C)C)C(=O)N[C@@H](CCCNC(=N)N)C(=O)N[C@@H](CCCNC(=N)N)C(=O)N2CCC[C@H]2C(=O)N1)C(=O)NCC(=O)N[C@@H](CC(C)C)C(=O)N[C@@H](C)C(=O)N[C@@H](CC(C)C)C(=O)N[C@H](C(=O)N[C@@H](CCCNC(=N)N)C(=O)N[C@@H](CCCNC(=N)N)C(=O)O)C(C)C [Peptide P2_var9]	–	6.25	6.25	–
CC(C)C[C@H](NC(=O)CNC(=O)[C@H](CCCNC(=N)N)NC(=O)[C@@H]1CSSC[C@H](NC(=O)[C@@H](NC(=O)[C@H](CC(C)C)NC(=O)[C@H](C)NC(=O)[C@H](CC(C)C)NC(=O)CNC(=O)[C@H](CC(C)C)NC(=O)CNC(=O)[C@@H](N)CCCNC(=N)N)C(C)C)C(=O)N[C@@H](CCCNC(=N)N)C(=O)N[C@@H](CCCNC(=N)N)C(=O)N[C@H](Cc2ccccc2)C(=O)N2CCC[C@H]2C(=O)N1)C(=O)NCC(=O)N[C@@H](CC(C)C)C(=O)N[C@@H](C)C(=O)N[C@@H](CC(C)C)C(=O)N[C@H](C(=O)N[C@@H](CCCNC(=N)N)C(=O)N[C@@H](CCCNC(=N)N)C(=O)O)C(C)C [Peptide P2_H12_fP]	–	3.13	6.25	–
CC(C)C[C@H](NC(=O)CNC(=O)[C@H](CCCNC(=N)N)NC(=O)[C@@H](NC(=O)[C@H](C)NC(=O)[C@H](CCCNC(=N)N)NC(=O)[C@@H](NC(=O)[C@H](CC(C)C)NC(=O)[C@H](C)NC(=O)[C@H](CC(C)C)NC(=O)CNC(=O)[C@H](CC(C)C)NC(=O)CNC(=O)[C@@H](N)CCCNC(=N)N)C(C)C)C(C)C)C(=O)NCC(=O)N[C@@H](CC(C)C)C(=O)N[C@@H](C)C(=O)N[C@@H](CC(C)C)C(=O)N[C@H](C(=O)N[C@@H](C)C(=O)N[C@@H](CCCNC(=N)N)C(=O)O)C(C)C [Peptide P2_4R_V] (H-RGLGLALVRAVRGLGLALVAR-OH)	12.50	–	–	–
CC(C)C[C@H](NC(=O)CNC(=O)[C@H](CCCNC(=N)N)NC(=O)[C@@H](NC(=O)CNC(=O)[C@H](C)NC(=O)[C@H](CCCNC(=N)N)NC(=O)[C@@H](NC(=O)[C@H](CC(C)C)NC(=O)[C@H](C)NC(=O)[C@H](CC(C)C)NC(=O)CNC(=O)[C@H](CC(C)C)NC(=O)CNC(=O)[C@@H](N)CCCNC(=N)N)C(C)C)C(C)C)C(=O)NCC(=O)N[C@@H](CC(C)C)C(=O)N[C@@H](C)C(=O)N[C@@H](CC(C)C)C(=O)N[C@H](C(=O)N[C@@H](C)C(=O)N[C@@H](CCCNC(=N)N)C(=O)O)C(C)C [Peptide P2_4R_GV] (H-RGLGLALVRAGVRGLGLALVAR-OH)	6.25	–	–	6.3 (≈ 2.88 µM)
CC(C)C[C@H](NC(=O)CNC(=O)[C@@H](N)CCCNC(=N)N)C(=O)NCC(=O)N[C@@H](CC(C)C)C(=O)N[C@@H](C)C(=O)N[C@@H](CC(C)C)C(=O)N[C@H](C(=O)N[C@@H](CCCNC(=N)N)C(=O)N[C@@H](CCCNC(=N)N)C(=O)N1CCC[C@H]1C(=O)N[C@@H](CCCNC(=N)N)C(=O)NCC(=O)N[C@@H](CC(C)C)C(=O)N[C@@H](C)C(=O)N[C@@H](CC(C)C)C(=O)N[C@@H](C)C(=O)N[C@@H](CC(C)C)C(=O)N[C@H](C(=O)N[C@@H](CCCNC(=N)N)C(=O)N[C@@H](CCCNC(=N)N)C(=O)O)C(C)C)C(C)C [Peptide P2_G15A] (H-RGLGLALVRRPRGLALALVRR-OH)	12.50	–	–	–
CC(C)C[C@H](NC(=O)CNC(=O)[C@H](CCCNC(=N)N)NC(=O)[C@H](CCCNC(=N)N)NC(=O)[C@H](C)NC(=O)[C@H](CCCNC(=N)N)NC(=O)[C@@H](NC(=O)[C@H](CC(C)C)NC(=O)[C@H](C)NC(=O)[C@H](CC(C)C)NC(=O)CNC(=O)[C@H](CC(C)C)NC(=O)CNC(=O)[C@@H](N)CCCNC(=N)N)C(C)C)C(=O)NCC(=O)N[C@@H](CC(C)C)C(=O)N[C@@H](C)C(=O)N[C@@H](CC(C)C)C(=O)N[C@H](C(=O)N[C@@H](C)C(=O)N[C@@H](CCCNC(=N)N)C(=O)O)C(C)C [Peptide P2_4R_R] (H-RGLGLALVRARRGLGLALVAR-OH)	12.50	–	–	–
CC[C@H](C)[C@H](NC(=O)CNC(=O)[C@H](CC(C)C)NC(=O)[C@H](CCCNC(=N)N)NC(=O)[C@@H]1CCCN1C(=O)[C@H](CCCNC(=N)N)NC(=O)[C@H](CCCNC(=N)N)NC(=O)[C@H](CC(C)C)NC(=O)[C@H](C)NC(=O)[C@@H](NC(=O)[C@H](C)NC(=O)[C@H](C)NC(=O)CNC(=O)[C@H](CC(C)C)NC(=O)[C@@H](N)CCCNC(=N)N)C(C)C)C(=O)N[C@@H](C)C(=O)N[C@H](C(=O)N[C@@H](C)C(=O)N[C@@H](CC(C)C)C(=O)N[C@@H](CCCNC(=N)N)C(=O)N[C@@H](CCCNC(=N)N)C(=O)O)C(C)C [Peptide P33-I4A] (H-RLGAAVALRRPRLGIAVALRR-OH)	12.50	–	–	–
